Numbered stars: 1 amine (or outer) side, 2 acyl side, 3 side chain; on linkers, the order of the positions; unused ones are H or OH. Bridge positions count the residues as written; N and C are the ends. Square brackets hold non-standard residues; d marks the D form. Peptide text beside a SMILES is read from it. Ala(2-carboxypyrimidin-5-yl) = N[C@@H](Cc1cnc(C(=O)O)nc1)C(=O)O; Trp(βS-Me,7-OMe) = COc1cccc2c([C@H](C)[C@H](N)C(=O)O)c[nH]c12; Trp(1-CH2COOH) = N[C@@H](Cc1cn(CC(=O)O)c2ccccc12)C(=O)O; X44 = NC(=O)c1ccc([C@@H](O)[C@H](N[*:1])C(=O)[*:2])cc1; Phe(4-SO2NH2) = N[C@@H](Cc1ccc(S(N)(=O)=O)cc1)C(=O)O; Trp(7-CN) = N#Cc1cccc2c(C[C@H](N)C(=O)O)c[nH]c12; Trp(7-Cl) = N[C@@H](Cc1c[nH]c2c(Cl)cccc12)C(=O)O; Phe(4-CONH2) = NC(=O)c1ccc(C[C@H](N)C(=O)O)cc1; Phe(4-COOH) = N[C@@H](Cc1ccc(C(=O)O)cc1)C(=O)O; dPro(trans-4-F) = O=C(O)[C@H]1C[C@H](F)CN1; Pip(5R-OH) = O=C(O)[C@@H]1CC[C@@H](O)CN1; X1 = O=C([C@@H]1CC[C@H](N[*:1])C1)[*:2]; Pip(4-aza) = O=C(O)[C@@H]1CNCCN1; 4Pal = N[C@@H](Cc1ccncc1)C(=O)O; NMeE = CN[C@@H](CCC(=O)O)C(=O)O; dHyp = O=C(O)[C@H]1C[C@H](O)CN1; αMeS = C[C@](N)(CO)C(=O)O; Nle = CCCC[C@H](N)C(=O)O; Sar = CNCC(=O)O
Legend:
[1] = biological target: T1, TNFα-induced NF-κB signal transduction pathway (TNFR1 signaling) in THP-1 cells (Homo sapiens, UniProt P19438); test: THP-1 Lucia NF-κB reporter cell assay, inhibition of TNFα-induced NF-κB signaling; format: cell-based; settings: THP-1 NF-κB Lucia reporter cells, 10 ng/mL TNFα, 16-18 h, secreted luciferase; read-out: THP-1 IC50
T1 sequence (P19438 30-455): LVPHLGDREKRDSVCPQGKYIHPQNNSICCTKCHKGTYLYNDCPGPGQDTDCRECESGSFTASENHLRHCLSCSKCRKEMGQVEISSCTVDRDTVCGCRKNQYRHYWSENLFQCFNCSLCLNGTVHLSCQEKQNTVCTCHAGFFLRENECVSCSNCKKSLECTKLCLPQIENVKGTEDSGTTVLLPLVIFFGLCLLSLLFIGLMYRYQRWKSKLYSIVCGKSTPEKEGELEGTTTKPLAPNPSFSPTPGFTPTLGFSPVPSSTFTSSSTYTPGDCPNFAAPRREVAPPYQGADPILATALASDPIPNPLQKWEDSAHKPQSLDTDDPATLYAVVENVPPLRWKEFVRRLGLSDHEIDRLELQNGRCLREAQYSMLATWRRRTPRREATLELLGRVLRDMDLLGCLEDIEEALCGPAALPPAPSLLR
Method in brief: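 Inhibition of TNFR1-driven NF-κB activation was measured as luminescence of secreted reporter luciferase following overnight (16-18 h) stimulation with 10 ng/mL TNFα.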

[2] = biological target: T2, human soluble TNFR1 (sTNFR1) (Homo sapiens, UniProt P19438); test: Human sTNFR1-peptide displacement assay (LanthaScreen Eu TR-FRET binding assay)
T2 construct: made in house; host or cells: Sf21 (baculovirus)
T2 sequence (P19438 with tags, fused parts or gaps): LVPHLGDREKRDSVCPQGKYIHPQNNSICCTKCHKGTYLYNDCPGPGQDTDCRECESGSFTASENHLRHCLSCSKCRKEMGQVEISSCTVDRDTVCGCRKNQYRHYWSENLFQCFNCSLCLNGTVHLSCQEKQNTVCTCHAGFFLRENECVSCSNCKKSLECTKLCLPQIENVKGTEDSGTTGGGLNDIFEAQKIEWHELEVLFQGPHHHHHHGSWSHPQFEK
Method in brief: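 Readout is the 665/615 nm TR-FRET ratio (Eu anti-His donor, streptavidin-Alexa647 acceptor), normalized to DMSO and saturating displacer, fit by Morrison-based five-parameter logistic for Kd^app. His-tagged sTNFR1 (1-211) prebound to 100 nM biotinylated peptide SEQ ID NO.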

In the case of `CCCC[C@@H]1NC(=O)[C@@H]2CC[C@@H](C2)NC(=O)[C@H]([C@@H](C)c2c[nH]c3c(OC)cccc23)NC(=O)CN(C)C(=O)[C@H](Cc2ccc(C(=O)O)cc2)NC(=O)[C@H]([C@H](O)c2ccc(C(N)=O)cc2)NC(=O)[C@](C)(CO)NC(=O)[C@H](Cc2c[nH]c3c(C#N)cccc23)NC(=O)[C@H](Cc2ccc(S(N)(=O)=O)cc2)NC(=O)[C@H](CC(N)=O)NC(=O)[C@H]2C[C@H](O)CN2C(=O)[C@H](Cc2cn(CC(=O)O)c3ccccc23)NC(=O)[C@@H]2CC[C@@H](O)CN2C(=O)[C@H](Cc2ccncc2)NC1=O` [SEQ ID NO. 119] (cyclo([4Pal][Pip(5R-OH)][Trp(1-CH2COOH)][dHyp]N[Phe(4-SO2NH2)][Trp(7-CN)][αMeS][X44][Phe(4-COOH)][Sar][Trp(βS-Me,7-OMe)][X1][Nle])), the IC50 [1] is reported as 0.7 nM and the Kd [2] is reported as 0.12 nM.

Work on `CCCC[C@@H]1NC(=O)CSC[C@@H](C(N)=O)NC(=O)[C@H]([C@@H](C)c2c[nH]c3c(OC)cccc23)NC(=O)CN(C)C(=O)[C@H](Cc2ccc(C(=O)O)cc2)NC(=O)[C@H](Cc2ccc(C(=O)O)cc2)NC(=O)[C@](C)(CO)NC(=O)[C@H](Cc2c[nH]c3c(Cl)cccc23)NC(=O)[C@H](Cc2ccncc2)NC(=O)[C@H](CC(N)=O)NC(=O)[C@H](CCC(=O)O)N(C)C(=O)[C@H](Cc2c[nH]c3ccccc23)NC(=O)[C@@H]2CNCCN2C(=O)[C@H](Cc2ccncc2)NC1=O` [SEQ ID NO. 251] ({CH2CO}-[Nle][4Pal][Pip(4-aza)]W[NMeE]N[4Pal][Trp(7-Cl)][αMeS][Phe(4-COOH)][Phe(4-COOH)][Sar][Trp(βS-Me,7-OMe)]C-NH2; thioether N-14) yielded an IC50 [1] of 2.7 nM, an IC50 [2] of 0.5 nM and a Kd [2] of 1.17 nM.

In the case of `CCCC[C@@H]1NC(=O)CSC[C@@H](C(N)=O)NC(=O)[C@H]([C@@H](C)c2c[nH]c3c(OC)cccc23)NC(=O)CN(C)C(=O)[C@H](Cc2ccc(O)cc2)NC(=O)[C@H](Cc2ccc(C(=O)O)cc2)NC(=O)[C@](C)(CO)NC(=O)[C@H](Cc2c[nH]c3c(Cl)cccc23)NC(=O)[C@H](Cc2ccncc2)NC(=O)[C@H](CC(N)=O)NC(=O)[C@H]2C[C@H](F)CN2C(=O)[C@H](Cc2c[nH]c3ccccc23)NC(=O)[C@@H]2CNCCN2C(=O)[C@H](Cc2ccncc2)NC1=O` [SEQ ID NO. 279] ({CH2CO}-[Nle][4Pal][Pip(4-aza)]W[dPro(trans-4-F)]N[4Pal][Trp(7-Cl)][αMeS][Phe(4-COOH)]Y[Sar][Trp(βS-Me,7-OMe)]C-NH2; thioether N-14), the IC50 [1] is reported as 1.4 nM and the Kd [2] is reported as 0.38 nM.

In the case of `CCCC[C@@H]1NC(=O)[C@@H]2CC[C@@H](C2)NC(=O)[C@H]([C@@H](C)c2c[nH]c3c(OC)cccc23)NC(=O)CN(C)C(=O)[C@H](Cc2ccc(C(=O)O)cc2)NC(=O)[C@H](Cc2ccc(C(N)=O)cc2)NC(=O)[C@](C)(CO)NC(=O)[C@H](Cc2c[nH]c3c(Cl)cccc23)NC(=O)[C@H](Cc2cnc(C(=O)O)nc2)NC(=O)[C@H](CC(N)=O)NC(=O)[C@H]2C[C@H](O)CN2C(=O)[C@H](Cc2c[nH]c3ccccc23)NC(=O)[C@@H]2CC[C@@H](O)CN2C(=O)[C@H](Cc2ccncc2)NC1=O` [SEQ ID NO. 88] (cyclo([4Pal][Pip(5R-OH)]W[dHyp]N[Ala(2-carboxypyrimidin-5-yl)][Trp(7-Cl)][αMeS][Phe(4-CONH2)][Phe(4-COOH)][Sar][Trp(βS-Me,7-OMe)][X1][Nle])), the IC50 [1] is reported as 1.9 nM and the Kd [2] is reported as 0.2 nM.

Source: patent US20240287138A1, “CYCLIC PEPTIDES FOR INHIBITING TNF RECEPTOR 1 ACTIVITY” (Merck Sharp & Dohme LLC, priority 2023, published 2024)
